{
  "source": "patent US20070032465A1",
  "about": "“Pharmaceutical composition comprising a p2x7-receptor antagonist and a tumour necrosis factor alpha” (priority 2003, published 2007)",
  "tested_on": "Streptococcal cell wall (SCW)-induced arthritis in female Lewis rats",
  "experiment": "Rat streptococcal cell wall (SCW)-induced arthritis: ankle swelling and von Frey mechanical threshold",
  "type": "in vivo",
  "conditions": "P2X7 antagonist 1 30 mg/kg oral bid, Etanercept 0.5 mg/kg s.c.; for % reduction of AUC (compared to arthritic vehicle control), Ankle swelling: AUC from day -1 to day 6 post-induction; for % reduction of AUC (compared to arthritic vehicle control), Von Frey threshold: von Frey filaments on days -1, 1, 3, 5",
  "excerpt": "Assessment of Anti-Inflammatory Activity of TNFα Inhibitor/P2X7 Anatagonist Combinations in Rat Streptococcal Cell Wall-Induced Arthritis. ^1 1. Experimental procedure based on that described by Carlson R P, Jacobsen P B; ‘Comparison of adjuvant and streptococcal cell wall-induced arthritis in the rat’ in Morgan D W, Marshall L A, editors; In Vivo Models of Inflammation. Basel: Birkhauser Verlag; 1999.\nStreptococcal cell wall (SCW)-induced arthritis was induced in the left ankle of female Lewis rats. Animals were sensitised by intra-articular injection of 5 μg (in 20 μL) SCW (Lee Laboratories) into the left ankle. Ankle swelling was assessed 3 days after injection and non-responders (animals with no apparent ankle swelling) were rejected. Responding animals were randomly allocated to the test groups.\nArthritis was induced 21 days after sensitisation by intravenous (iv) injection of SCW (100 μg in 500 μL saline). Animals were monitored and assessed on a daily basis through to termination 6 days after induction. The rats were housed on sawdust and provided with food and water ad libitum.\nIn this example the P2X7 antagonist 1, was orally dosed at 30 mg/kg (4 mL/kg, bid). The compound was dosed as a suspension in 1% (w/v) methylcellulose in deionised water and was freshly prepared on a daily basis. Dosing commenced 1 day prior to induction of arthritis and continued through to termination on day 6 post-induction. Etanercept (0.5 mg/kg) was administered by subcutaneous injection (1 mL/kg) 1 day prior to induction of arthritis and then on days 1, 3 and 5 post-induction.\nAnkle diameters were measured with vernier callipers on a daily basis from day −1. Mechanical thresholds were assessed using von Frey filaments on days −1, 1, 3 and 5. The filaments were applied in increasing weights to the ankle region on the footpad of both feet. The first filament to induce a withdrawal response was considered to be the threshold.\nEffects on ankle swelling and mechanical threshold were calculated on an area under the curve (AUC) basis, as the sum of the differences from individual day −1 values. The size and direction of the interaction was calculated and data analysis performed by ANOVA followed by Dunnett's test on the AUC data (SAS version 8.01).",
  "data": [
    {"compound": "Cc1ccc(C(=O)N2CC3CNCC(C2)O3)cc1NC(=O)CC12CC3CC(CC(C3)C1)C2.Cl", "note": "[P2X7 antagonist 1, N-[2-Methyl-5-(9-oxa-3,7-diazabicyclo[3.3.1]non-3-ylcarbonyl)phenyl]-tricyclo[3.3.1.1^3,7]decane-1-acetamide, hydrochloride]", "values": [
      {"measurement": "% reduction of AUC (compared to arthritic vehicle control), Ankle swelling", "value": "28.5 ± 13.5", "unit": "%"},
      {"measurement": "% reduction of AUC (compared to arthritic vehicle control), Von Frey threshold", "value": "21.1 ± 10.9", "unit": "%"}
    ]},
    {"compound": "Etanercept", "values": [
      {"measurement": "% reduction of AUC (compared to arthritic vehicle control), Ankle swelling", "value": "44.0 ± 4.7", "unit": "%"},
      {"measurement": "% reduction of AUC (compared to arthritic vehicle control), Von Frey threshold", "value": "7.4 ± 6.8", "unit": "%"}
    ]}
  ]
}
